Reference: ChEMBL document CHEMBL4616702 (ACS Med Chem Lett, 2020)

Key:
[1] = biological target: Cytochrome P450 2D6 (Homo sapiens, UniProt P10635); test: Inhibition of recombinant CYP2D6 (unknown origin); assay type: ADME
[2] = biological target: T1, Nuclear receptor ROR-alpha (Homo sapiens, UniProt P35398); test: Inverse agonist activity at Gal4-fused RORalpha (unknown origin)
T1 sequence (P35398 whole entry): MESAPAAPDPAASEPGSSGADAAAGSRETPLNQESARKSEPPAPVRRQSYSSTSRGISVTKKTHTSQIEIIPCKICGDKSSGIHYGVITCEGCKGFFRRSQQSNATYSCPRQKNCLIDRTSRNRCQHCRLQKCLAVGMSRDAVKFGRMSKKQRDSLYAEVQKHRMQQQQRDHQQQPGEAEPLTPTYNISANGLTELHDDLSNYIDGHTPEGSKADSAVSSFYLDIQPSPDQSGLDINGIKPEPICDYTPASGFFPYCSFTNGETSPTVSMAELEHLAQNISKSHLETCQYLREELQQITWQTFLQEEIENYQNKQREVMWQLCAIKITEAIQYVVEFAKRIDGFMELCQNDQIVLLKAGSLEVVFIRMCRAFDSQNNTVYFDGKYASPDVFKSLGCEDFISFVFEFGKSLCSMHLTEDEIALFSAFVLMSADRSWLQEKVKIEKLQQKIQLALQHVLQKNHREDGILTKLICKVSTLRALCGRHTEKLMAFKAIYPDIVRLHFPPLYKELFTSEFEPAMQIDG

[3] = Cmax in Balb/c mouse at 10 mg/kg, po; assay type: ADME, organism-based; design: dose 10 mg/kg, route oral; details: in vivo
[4] = biological target: T2, Nuclear receptor ROR-beta (Homo sapiens, UniProt Q92753); test: Inverse agonist activity at Gal4-fused RORbeta (unknown origin)
T2 sequence (Q92753 whole entry): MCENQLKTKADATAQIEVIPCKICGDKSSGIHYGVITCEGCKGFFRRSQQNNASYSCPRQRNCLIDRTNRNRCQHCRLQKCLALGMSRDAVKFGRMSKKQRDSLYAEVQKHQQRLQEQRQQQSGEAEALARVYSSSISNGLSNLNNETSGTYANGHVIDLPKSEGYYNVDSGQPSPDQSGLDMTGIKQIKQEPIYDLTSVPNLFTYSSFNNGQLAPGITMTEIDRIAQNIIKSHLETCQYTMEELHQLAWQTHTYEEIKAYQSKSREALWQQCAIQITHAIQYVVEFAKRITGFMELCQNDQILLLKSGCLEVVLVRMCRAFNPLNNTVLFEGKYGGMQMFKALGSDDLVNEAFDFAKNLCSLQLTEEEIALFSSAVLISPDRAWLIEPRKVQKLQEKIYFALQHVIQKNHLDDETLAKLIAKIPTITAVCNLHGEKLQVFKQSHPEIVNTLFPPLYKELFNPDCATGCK

[5] = biological target: Cytochrome P450 2C19 (Homo sapiens, UniProt P33261); test: Inhibition of recombinant CYP2C19 (unknown origin); assay type: ADME
Sequence of Cytochrome P450 2C19 (P33261 whole entry): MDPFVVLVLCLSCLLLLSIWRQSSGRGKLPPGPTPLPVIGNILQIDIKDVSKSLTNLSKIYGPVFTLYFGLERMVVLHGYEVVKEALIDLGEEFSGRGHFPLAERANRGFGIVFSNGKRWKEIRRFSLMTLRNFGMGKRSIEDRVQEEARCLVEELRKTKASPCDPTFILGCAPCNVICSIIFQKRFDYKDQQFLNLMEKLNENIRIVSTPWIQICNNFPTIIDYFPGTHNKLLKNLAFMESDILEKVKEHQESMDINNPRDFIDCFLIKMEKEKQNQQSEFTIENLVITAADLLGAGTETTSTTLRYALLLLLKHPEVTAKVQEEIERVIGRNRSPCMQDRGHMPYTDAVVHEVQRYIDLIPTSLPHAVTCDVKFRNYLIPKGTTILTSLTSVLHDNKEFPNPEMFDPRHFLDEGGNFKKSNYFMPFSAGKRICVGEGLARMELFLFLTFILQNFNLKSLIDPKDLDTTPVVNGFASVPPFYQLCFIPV

[6] = Volume of distribution in steady state in cynomolgus monkey at 1 mg/kg, iv; assay type: ADME, organism-based, Macaca fascicularis; details: in vivo, read-out: Vdss
[7] = Oral bioavailability in cynomolgus monkey at 1 mg/kg; assay type: ADME, organism-based, Macaca fascicularis; details: in vivo
[8] = Clearance in rat at 2 mg/kg, iv; assay type: ADME, organism-based; details: in vivo
[9] = Fraction unbound in rat plasma; assay type: ADME, cell-free
[10] = Half life in rat liver microsomes in presence of NADPH by LC/MS/MS metho; assay type: ADME, Microsome; details: liver microsomes
[11] = Oral bioavailability in dog at 1 mg/kg; assay type: ADME, organism-based, Canis lupus familiaris; details: in vivo
[12] = biological target: T3, Cytochrome P450 2C8 (Homo sapiens, UniProt P10632); test: Inhibition of recombinant CYP2C8 (unknown origin); assay type: ADME
T3 sequence (P10632 whole entry): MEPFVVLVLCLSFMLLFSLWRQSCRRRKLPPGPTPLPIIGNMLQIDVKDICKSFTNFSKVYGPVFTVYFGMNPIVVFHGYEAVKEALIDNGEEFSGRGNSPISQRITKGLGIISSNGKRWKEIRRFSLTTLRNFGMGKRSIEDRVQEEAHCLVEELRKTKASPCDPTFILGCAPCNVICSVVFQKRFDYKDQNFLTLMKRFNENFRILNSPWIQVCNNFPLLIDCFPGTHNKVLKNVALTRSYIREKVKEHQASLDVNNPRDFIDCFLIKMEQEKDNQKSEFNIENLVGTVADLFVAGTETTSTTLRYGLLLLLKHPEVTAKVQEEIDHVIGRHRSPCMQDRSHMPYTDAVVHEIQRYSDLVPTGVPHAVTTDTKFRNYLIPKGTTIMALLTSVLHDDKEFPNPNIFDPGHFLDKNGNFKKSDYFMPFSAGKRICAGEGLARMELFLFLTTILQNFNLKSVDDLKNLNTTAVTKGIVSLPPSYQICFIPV

[13] = Fraction unbound in mouse plasma; assay type: ADME, cell-free
[14] = Drug concentration in Balb/c mouse at 10 mg/kg, po measured upto 24 hrs; assay type: ADME, organism-based; details: in vivo, read-out: Drug uptake
[15] = Half life in cynomolgus monkey at 1 mg/kg, iv; assay type: ADME, organism-based, Macaca fascicularis; details: in vivo
[16] = Oral bioavailability in rat at 4 mg/kg; assay type: ADME, organism-based; details: in vivo
[17] = biological target: T4, Nuclear receptor subfamily 1 group I member 2 (Homo sapiens, UniProt O75469); test: Inverse agonist activity at PXR (unknown origin)
T4 sequence (O75469 whole entry): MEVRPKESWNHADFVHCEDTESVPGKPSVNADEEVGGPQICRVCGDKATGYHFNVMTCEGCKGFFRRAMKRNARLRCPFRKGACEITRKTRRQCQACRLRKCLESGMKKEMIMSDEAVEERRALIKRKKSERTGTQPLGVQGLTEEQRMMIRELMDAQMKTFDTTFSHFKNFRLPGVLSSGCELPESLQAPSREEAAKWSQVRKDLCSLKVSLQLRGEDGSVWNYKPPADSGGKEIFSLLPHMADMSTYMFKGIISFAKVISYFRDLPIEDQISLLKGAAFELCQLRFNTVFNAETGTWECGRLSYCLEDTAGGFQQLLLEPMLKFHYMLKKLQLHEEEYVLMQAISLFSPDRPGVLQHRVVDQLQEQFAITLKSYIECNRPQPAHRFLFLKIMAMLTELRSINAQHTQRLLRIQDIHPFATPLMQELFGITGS

[18] = Half life in rat at 2 mg/kg, iv; assay type: ADME, organism-based; details: in vivo
[19] = Half life in dog at 1 mg/kg, iv; assay type: ADME, organism-based, Canis lupus familiaris; details: in vivo
[20] = AUC (0 to 24 hrs) in rat at 4 mg/kg, po; assay type: ADME, organism-based; design: time < 24 hr, dose 4 mg/kg, route oral; details: in vivo
[21] = biological target: Cytochrome P450 2C9 (Homo sapiens, UniProt P11712); test: Inhibition of recombinant CYP2C9 (unknown origin); assay type: ADME
Sequence of Cytochrome P450 2C9 (P11712 whole entry): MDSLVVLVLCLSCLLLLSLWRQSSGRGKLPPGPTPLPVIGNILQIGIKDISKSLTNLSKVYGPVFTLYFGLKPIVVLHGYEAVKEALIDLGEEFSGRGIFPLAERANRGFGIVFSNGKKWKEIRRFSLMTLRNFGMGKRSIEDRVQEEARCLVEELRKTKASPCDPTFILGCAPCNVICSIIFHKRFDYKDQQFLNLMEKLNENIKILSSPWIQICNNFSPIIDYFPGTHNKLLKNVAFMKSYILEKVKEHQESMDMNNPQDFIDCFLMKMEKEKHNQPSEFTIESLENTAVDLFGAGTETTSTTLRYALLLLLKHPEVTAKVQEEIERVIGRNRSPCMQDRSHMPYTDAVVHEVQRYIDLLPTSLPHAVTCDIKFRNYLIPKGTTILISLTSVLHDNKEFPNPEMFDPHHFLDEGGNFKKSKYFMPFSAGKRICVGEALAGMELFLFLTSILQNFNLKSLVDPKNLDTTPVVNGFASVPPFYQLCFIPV

Sequence of Cytochrome P450 2D6 (P10635 whole entry, the tested form may be a part): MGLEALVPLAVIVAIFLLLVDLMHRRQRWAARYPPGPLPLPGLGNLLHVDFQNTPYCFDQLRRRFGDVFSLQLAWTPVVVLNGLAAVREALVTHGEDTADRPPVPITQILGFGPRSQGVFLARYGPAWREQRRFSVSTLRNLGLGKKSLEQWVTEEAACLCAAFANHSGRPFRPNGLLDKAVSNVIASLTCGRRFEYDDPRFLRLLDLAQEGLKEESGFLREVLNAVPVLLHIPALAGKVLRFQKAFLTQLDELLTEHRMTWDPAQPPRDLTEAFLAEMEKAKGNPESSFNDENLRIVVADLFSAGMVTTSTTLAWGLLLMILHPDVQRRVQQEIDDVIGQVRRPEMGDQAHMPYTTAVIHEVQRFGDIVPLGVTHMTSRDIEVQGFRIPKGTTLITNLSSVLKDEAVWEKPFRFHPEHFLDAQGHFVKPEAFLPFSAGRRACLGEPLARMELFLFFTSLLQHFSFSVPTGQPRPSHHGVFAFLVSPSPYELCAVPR

- IC50 [1]: > 20 µM
- EC50 [2]: > 10 µM
- Cmax [3]: 11 µM
- EC50 [4]: > 10 µM
- IC50 [5]: > 20 µM
- Vd [6]: 2 L/kg
- bioavailability [7]: 100%
- clearance [8]: 1.3 mL/min/kg
- fraction unbound [9]: 0.021
- half-life [10]: > 2 h
- bioavailability [11]: 100%
- IC50 [12]: 16 µM
- fraction unbound [13]: 0.016
- concentration at 24 h [14]: 0.52 µM
- half-life [15]: 33 h
- bioavailability [16]: 94%
- EC50 [17]: > 5 µM
- half-life [18]: 11 h
- half-life [19]: 36 h
- AUC(0-t) at 24 h [20]: 64 µM·h
- IC50 [21]: > 20 µM
Compound: C[C@H]1C[C@H](C(=O)O)CC[C@H]1C(=O)N1CC[C@@]2(S(=O)(=O)c3ccc(F)cc3)c3ccc(C(F)(C(F)(F)F)C(F)(F)F)cc3CC[C@@H]12 [BMS-986251]
